In patent US8389721B2, “Solubilized topoisomerase poisons” (Rutgers, The State University of New Jersey, priority 2001, dated 2013):
Where two headings read alike, the source gives them in different places.

Assays:
[1] = system: CPT-K5; experiment: MTT-microtiter plate tetrazolinium cytotoxicity assay (Test B), camptothecin-resistant variant; format: cell-based; details: Homo sapiens
Description: (§1) Test B. Inhibition of Cell Growth: MTT-Microtiter Plate Tetrazolinium Cytotoxicity Assay (RPMI 8402, CPT-K5, U937, U937/CR Cells)
(§2) The cytotoxicity is determined using the MTT-microtiter plate tetrazolinium cytotoxicity assay (MTA), see Chen A. Y. et al. Cancer Res. 1993, 53, 1332; Mosmann, T. J., J. Immunol. Methods 1983, 65, 55; and Carmichael, J. et al. Cancer Res. 1987, 47, 936. The human lymphoblast RPMI 8402 and its camptothecin-resistant variant cell line, CPT-K5 were provided by Dr. Toshiwo Andoh (Anchi Cancer Research Institute, Nagoya, Japan), see Andoh, T.; Okada, K, Adv. in Pharmacology 1994, 29B, 93. Human U-937 myeloid leukemia cells and U-937/CR cells were described by Rubin et al., J. Biol. Chem., 1994, 269, 2433-2439. The cytotoxicity assay is performed by using 96-well microtiter plates using 2000 cells/well, in […] of growth medium. Cells are grown in suspension at 37° C. in 5% CO2 and maintained by regular passage in RPMI medium supplemented with 10% heat-inactivated fetal bovine serum, L-glutamine (2 mM), penicillin (100 U/mL), and streptomycin (0.1 mg/mL). For determination of IC50, cells are exposed continuously for 3-4 days to varying concentrations of drug, and MTT assays were performed at the end of the fourth day. […] All assays are performed at least twice in 6 replicate wells. All assays are performed under the direction of Dr. L. F. Liu, Department of Pharmacology, The University of Medicine and Dentistry of New Jersey, Robert Wood Johnson Medical School, Piscataway, N.J.

[2] = system: RPMI 8402; experiment: MTT-microtiter plate tetrazolinium cytotoxicity assay (Test B); format: cell-based, human
Description: as §1, §2

[3] = camptothecin-resistant variant cell line CPT-K5, continuous exposure 3-4 days, MTT, read-out: CPT-K5 IC50 values
[4] = human lymphoblast RPMI 8402 cells, continuous exposure 3-4 days, MTT, read-out: RPMI 8402 [μM] IC50 values

melting point	Compound	further results
229 °C	COc1cc2c(=O)n(CCN3CCCC3)c3c4cc5c(cc4nnc3c2cc1OC)OCO5 [Example 5, 2,3-Dimethoxy-8,9-methylenedioxy-11-[2-(pyrrolidin-1-yl)ethyl]-11H-5,6,11-triaza-chrysen-12-one]	–
271 to 273 °C (dec.)	COc1cc2c(cc1OC)-c1cnc3cc4c(cc3c1N(CCN(C)C)C2)OCO4 [Example 17, 8,9-Dimethoxy-2,3-methylenedioxy-5-[2-(N,N-dimethylamino)ethyl]-5,6-dihydro-dibenzo[c,h]1,6-naphthyridine]	–
186 to 187 °C	COc1cc2c(=O)n(C(C)CN(C)C)c3c4cc5c(cc4ncc3c2cc1OC)OCO5 (stereo not drawn) [Example 8, 8,9-Dimethoxy-2,3-methylenedioxy-5-[2-(N,N-dimethylamino)-1-methylethyl]-5H-dibenzo[c,h]1,6-naphthyridin-6-one]	–
255 to 257 °C (dec.)	COc1cc2c(=O)n(CCN3CCCC3)c3c4cc5c(cc4ncc3c2cc1OC)OCO5 [Example 9, 8,9-Dimethoxy-2,3-methylenedioxy-5-[2-(pyrrolidin-1-yl)ethyl]-5H-dibenzo[c,h]1,6-naphthyridin-6-one]	–
300 to 303 °C (dec.)	COc1cc2c(=O)n(CC3CCCO3)c3c4cc5c(cc4nnc3c2cc1OC)OCO5 (stereo not drawn) [Example 4, 2,3-Dimethoxy-8,9-methylenedioxy-11-(2-tetrahydrofuranyl)methyl-11H-5,6,11-triazachrysen-12-one]	–
285 to 286 °C	COc1cc2c(=O)n(CCO)c3c4cc5c(cc4ncc3c2cc1OC)OCO5 [Example 13, 8,9-Dimethoxy-2,3-methylenedioxy-5-[2-(hydroxy)ethyl]-5H-dibenzo[c,h]1,6-naphthyridin-6-one]	–
153 to 154 °C	COc1cc2c(cc1OC)-c1cnc3cc4c(cc3c1N(C(C)CN(C)C)C2)OCO4 (stereo not drawn) [Example 18, 8,9-Dimethoxy-2,3-methylenedioxy-5-[2-(N,N-dimethylamino)-1-methylethyl]-5,6-dihydro-dibenzo[c,h]1,6-naphthyridine]	–
235 °C	COc1cc2c(=O)n(CCOCCO)c3c4cc5c(cc4ncc3c2cc1OC)OCO5 [Example 14, 8,9-Dimethoxy-2,3-methylenedioxy-5-[2-(2-hydroxyethoxy)ethyl]-5H-dibenzo[c,h]1,6-naphthyridin-6-one]	–
221 to 223 °C (dec.)	CCN(CC)CCn1c(=O)c2cc(OC)c(OC)cc2c2cnc3cc4c(cc3c21)OCO4 [Example 19, 8,9-Dimethoxy-2,3-methylenedioxy-5-[2-(N,N-diethylamino)ethyl]-5H-dibenzo[c,h]1,6-naphthyridin-6-one]	–
294 to 295 °C	COc1cc2c(=O)n(CCN3CCCCC3)c3c4cc5c(cc4nnc3c2cc1OC)OCO5 [Example 6, 2,3-Dimethoxy-8,9-methylenedioxy-11-[2-(piperidin-1-yl)ethyl]-11H-5,6,11-triaza-chrysen-12-one]	–
244 to 246 °C	COc1cc2c(=O)n(CCN3CCN(C)CC3)c3c4cc5c(cc4ncc3c2cc1OC)OCO5 [Example 10, 8,9-Dimethoxy-2,3-methylenedioxy-5-[2-(4-methylpiperazin-1-yl)ethyl]-5H-dibenzo[c,h]1,6-naphthyridin-6-one]	–
262 to 264 °C (dec.)	COc1cc2c(=O)n(CCCN(C)C)c3c4cc5c(cc4ncc3c2cc1OC)OCO5 [Example 11, 8,9-Dimethoxy-2,3-methylenedioxy-5-[3-(N,N-dimethylamino)propyl]-5H-dibenzo[c,h]1,6-naphthyridin-6-one]	–
–	CC[C@@]1(O)C(=O)OCc2c1cc1n(c2=O)Cc2cc3ccccc3nc2-1 [Camptothecin]	IC50 ([1]; CPT-K5, read-out: CPT-K5 IC50 values): 4500 nM; IC50 ([2]; Homo sapiens, RPMI 8402, read-out: RPMI 8402 [μM] IC50 values): 0.002 µM
–	CCc1c2c(nc3ccc(OC(=O)N4CCC(N5CCCCC5)CC4)cc13)-c1cc3c(c(=O)n1C2)COC(=O)[C@]3(O)CC [Irinotecan]	IC50 [1, 3]: > 100000 nM; IC50 [2, 4]: 0.57 µM
–	COc1cc2c(=O)n(CCN(C)C)c3c4cc5c(cc4nnc3c2cc1OC)OCO5 [Compound 5, 11,12-dihydro-2,3-dimethoxy-8,9-methylenedioxy-11-[2-(dimethylamino)ethyl]-5,6,11-triazachrysen-12-one]	IC50 [1, 3]: 1200 nM; IC50 [2, 4]: 0.003 µM
–	CC[C@@]1(O)C(=O)OCc2c1cc1n(c2=O)Cc2cc3c(CN(C)C)c(O)ccc3nc2-1 [Topotecan]	IC50 [1, 3]: > 10000 nM; IC50 [2, 4]: 0.005 µM
270 to 273 °C	COc1cc2c(=O)n(CC3CCCO3)c3c4cc5c(cc4ncc3c2cc1OC)OCO5 (stereo not drawn) [Example 12, 8,9-Dimethoxy-2,3-methylenedioxy-5-(2-tetrahydrofuranyl)methyl-5H-dibenzo[c,h]1,6-naphthyridin-6-one]	–
